Results on three molecules are retold here after article PMC6272295, “In Vitro Neuroprotective Activities of Compounds from Angelica shikokiana Makino” (Molecules, 2015).

Read-outs that look alike come from different tables or passages of the source.

Data set [1] deals with T1, AChE from Electrophorus electricus (Electrophorus electricus, UniProt O42275).
T1 construct: purchased Sigma (St. Louis, MO, USA)
Put plainly: biochemical. To be noted: Ellman's method; read-out: IC50 in the AChEI assay. The protocol: AChEI activity was measured using Ellman’s method. AChE hydrolyzes the substrate ACTI into acetate and thiocholine. In a neutral and alkaline medium; thiocholine reacts with DTNB to give yellow colored 2-nitro-5-thiobenzoate, which can be detected spectrophotometrically at 405 nm. Briefly, in a 96-well plate, 25 µL of 15 mM ACTI, 125 µL of 3 mM DTNB in buffer B (50 mM Tris HCl, pH = 8, 0.1 M NaCl, 0.02 M MgCl2·6H2O), 50 µL of buffer A (50 mM Tris-HCl, PH 8, 0.1% BSA) and 25 µL of tested sample (dissolved in 25% DMSO) were mixed, and the absorbance was measured using a microplate reader (Biotek, Winooski, VT, USA) at 405 nm every 16 s ten times. Then, 25 µL of AChE (0.25 U/mL in buffer A) was added and the absorbance was measured ten times every 16 s. A solution of 25% DMSO was used as a negative control. Absorbance was plotted against time and enzyme activity was calculated from the slope of the line so obtained and expressed as a percentage compared to an assay using a buffer without any inhibitor. Fractions were tested at 400 µg/mL. To avoid any increase in absorbance due to the color of the compounds or spontaneous hydrolysis of the substrate, the absorbance before addition of the enzyme was subtracted from the absorbance after adding the enzyme.
(§1) IC50 values of isolated compounds in AChEI and scavenging of hydroxyl radical assays were calculated using Probit Analysis (SPSS Version 16.0 for Windows, SPSS Inc., Chicago, IL, USA) for five different concentrations in three independent experiments. Cell viability was expressed as a percentage of MTT reduction, assuming that the viability of cells treated with 1% DMSO as a negative control was 100%. Figures were built in Microsoft Excel 2010. All values are the mean ± SD of three independent experiments. Data were analyzed for statistical significance using one-way ANOVA, followed by Dunnet’s test as a post-hoc test with GraphPad Prism 5.0 software for Windows (Inc., San Diego, CA, USA).
A general note: In Ellman's method for cholinesterases, released thiocholine reacts with DTNB.

Data set [2] can be described thus: Scavenging of hydroxyl radical, 2-deoxyribose degradation assay. To be noted: for % Inhibition of deoxyribose degradation, Non Site-Specific: at 300 µM (maximum solubility in phosphate buffer). The protocol:
The inhibitory effect of bioactive compounds on deoxyribose degradation was determined by measuring the competition between deoxyribose and bioactive compounds for the hydroxyl radicals (^.OH) generated from the Fe^3+/ascorbate/EDTA/H2O2 system (referred to non-site-specific assay; the major activity measured is ^.OH scavenging) or an Fe^3+/ascorbate/H2O2 system (referred to as a site-specific assay; major activity measured is metal chelation). Both assays depend on the formation of a highly reactive hydroxyl radical, OH, by the interaction of iron ions with H2O2 through Fenton’s reaction. […] This assay was performed as previously described. Different concentrations of tested compounds were dissolved in 400 µL phosphate buffer (0.2 M, pH 7.4). Then, 50 µL of deoxyribose (60 mM), 50 µL of Na2EDTA (2 mM), 50 µL of FeCl3 (3.2 mM), 50 µL of H2O2 (60 mM) and 50 µL of ascorbic acid (2 mM) were added, and the total volume of the reaction mixture was adjusted to 1 mL with buffer. After water-bath incubation at 50 °C for 25 min, the reaction was terminated by 250 µL of trichloroacetic acid (10%, w/w). […] For site-specific hydroxyl-radical-scavenging activity, the reaction mixture was similar to the above method, except that EDTA was replaced by an equivalent volume of buffer.
as §1, with “Figures were built in Microsoft Excel 2010.” left out

Data set [3] has as its system neuro-2A cells. Put plainly: Protection against Aβ25-35-induced neurotoxicity (MTT). As to Protection against Aβ25-35: key: +: Weak activity; ++: Strong activity. The data set is classed as cell-based, Mouse. To be noted: for Protection against Aβ25-35: summary Table 4. The procedure: (§2) Neuro-2A cell line was maintained in Eagle’s Minimum Essential medium supplemented with 10% fetal bovine serum, 1% of 100× antibiotic—antimitotic agents (containing penicillin and streptomycin) in a humid atmosphere of 5% (v/v) CO2 and 95% (v/v) air at 37 °C. Neuro-2A cells were plated in 96-well cell culture plates at a density of 3 × 10^4 cells/well for H2O2 and intracellular ROS assays and 2.5 × 10^3 cells/well for the Aβ25-35-assay.
(§3) Cell viability was determined by MTT reduction assay. Briefly, after treatment with isolated compounds, the media was replaced by fresh one after washing the cells with 100 µL PBS and 20 µL of MTT (5 mg/mL) was added to each well. After 4 h incubation at 37 °C, the state of cells was checked under microscope to confirm either cytotoxicity in H2O2 and Aβ25-35 wells or protection in positive controls and isolated compounds ones. The supernatants were aspirated carefully, and 150 µL of DMSO was added to each well to dissolve the dark blue formazan crystals. The absorbance was measured using a microplate reader at 570 nm.
Similarly, the concentration of Aβ25-35 that decreased cell viability to about 50% was determined. […] So, the cells were incubated with different concentrations of the isolated compounds (6.25, 12.5, 25, 50 and 100 µM) and EGCG as a positive control for 3 h followed by Aβ25-35 treatment for 72 h.

In a further data set the target is T2, Aβ25-35 (Homo sapiens, UniProt P05067).
T2 construct: Aβ25-35 (25 µM) freshly prepared in PBS; purchased Sigma (St. Louis, MO, USA)
Put plainly: Thioflavin T assay of Aβ25-35 aggregation. As to Decrease of ThT Fluorescence: key: +: Weak activity; ++: Strong activity. It counts as biochemical. To be noted: for effect on Th-T fluorescence (in words): 25-100 µM; for Decrease of ThT Fluorescence: summary Table 4; for decrease of Th-T fluorescence intensity: Aβ25-35 25 µM. The protocol: Thioflavin T (ThT), abenzothiazole salt, is used to quantify misfolded protein aggregates and amyloid peptides. ThT is a non-fluorescent dye which, when it binds to amyloid rich aggregates, produces a fluorescent signal proportional to the quantity of amyloid aggregation. Aβ25-35 (25 µM) freshly prepared in PBS (50 mM, pH = 7.4) was incubated at 37 °C with or without different concentrations (100, 50, 25 µM) of isolated compounds at 37 °C and shaken at 300 rpm for 3 h. One hundred µL of each incubated sample was transferred to a 96-well plate, and five µM ThT was added. The ThT fluorescence was measured over 180 min at 10-min intervals at emission λ at 485 nm; and excitation λ at 442 nm using FlexStation 3 Microplate Reader (Molecular Devices, LLC, Sunnyvale, CA, USA), and data were managed by SoftMax Pro® 5.4.1 software. The samples were constantly shaken every 60 sec during the incubation. 1% DMSO and different concentrations of ECCG were taken as negative and positive controls, respectively. The area under the curve (AUC) was taken as indicative of fluorescence intensity. Fluorescence of samples and ThT without Aβ25-35 (sample blank) was detected and subtracted from the final AUC to prevent any interference.

The subject of data set [4] is neuro-2A cells. Put plainly: Protection against H2O2-induced neurotoxicity (MTT). It counts as cell-based, Mouse. The protocol:
as §2, §3
H2O2 interacts with metals in the medium, producing highly cytotoxic hydroxyl radicals that induce neurotoxicity. So, active compounds are those that can scavenge free radicals and increase the cell viability. This assay was performed as previously described with slight modifications. Briefly, the concentration of H2O2 that decreased cell viability to about 50% was determined as follows: cells were cultured in a 96-well plate and after 24 h were further incubated with different concentrations of H2O2 (50, 100, 150, 200 µM) freshly prepared from 30% stock solution. After 24 h, cell viability was determined using the MTT reduction method. H2O2 at a concentration of 150 µM had the desired cytotoxicity and was used for the next step.

For data set [5], the system named is intracellular ROS in Neuro-2A cells. Put plainly: Scavenging of intracellular reactive oxygen species (Bes-H2O2-AC, DFF fluorescence). Also: key: +: Weak activity; ++: Strong activity. To be noted: summary Table 4. It counts as cell-based, Mouse. The procedure:
as §2
This assay was performed as previously described with some modifications. Briefly, Neuro-2A cells were seeded in 96-well Clear Fluorescence Black Plate (number 655090, Greiner Bio-one, Tokyo, Japan). Cells were treated with three different concentrations (25, 50, 100 µM) of the samples. After 2 h incubation, cells were subjected to oxidative stress using 600 µM of H2O2 for 30 min. The nucleus was stained by Hoechst 33342 (Dojindo, Kumamoto, Japan), and the amount of difluorofluorescein (DFF) released from the reaction of H2O2 and BES-H2O2-Ac was taken as an indication of the amount of intracellular H2O2 and ROS. Images of each well were acquired using an IN Cell Analyzer 1000 (GE Healthcare, Buckinghamshire, UK) using 360-nm (Hoechst 33342) and 480-nm (BES-H2O2-Ac) excitation filters and monitored through 460-nm and 535-nm emission filters, respectively. Developer software was used to analyze the images of Hoechst 33342 and BES-H2O2-Ac staining, and the resulting data were then applied to Spotfire Decision Site Client 8.2 software for visualizing the results.

T1 sequence (O42275 24-633): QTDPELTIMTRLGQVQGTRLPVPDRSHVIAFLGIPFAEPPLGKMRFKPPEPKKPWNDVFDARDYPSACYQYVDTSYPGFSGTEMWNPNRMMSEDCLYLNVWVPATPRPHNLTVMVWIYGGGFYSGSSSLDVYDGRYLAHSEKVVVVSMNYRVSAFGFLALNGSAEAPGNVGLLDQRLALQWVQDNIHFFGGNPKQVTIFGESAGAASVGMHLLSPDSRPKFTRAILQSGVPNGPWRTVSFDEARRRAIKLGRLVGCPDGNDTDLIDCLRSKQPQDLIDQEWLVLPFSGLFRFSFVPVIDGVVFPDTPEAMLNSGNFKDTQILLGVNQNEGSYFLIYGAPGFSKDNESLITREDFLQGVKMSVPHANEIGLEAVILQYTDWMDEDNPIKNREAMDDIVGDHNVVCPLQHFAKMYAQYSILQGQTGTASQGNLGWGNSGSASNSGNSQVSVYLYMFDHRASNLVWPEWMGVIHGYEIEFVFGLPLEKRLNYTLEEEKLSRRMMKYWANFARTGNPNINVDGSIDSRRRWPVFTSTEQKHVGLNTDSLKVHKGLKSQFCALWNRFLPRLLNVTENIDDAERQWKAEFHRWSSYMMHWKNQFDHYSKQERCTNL

For `CC(=O)O[C@@H]1c2c(ccc3ccc(=O)oc23)OC(C)(C)[C@@H]1OC(=O)[C@@]1(C)O[C@H]1C` [Isoepoxypteryxin (3), isoepoxypteryxin], the IC50 in data set [1] was found to be 327 ± 3.4 µM. Besides, in data set [2], the “% Inhibition of deoxyribose degradation, Non Site-Specific” value came out at 6 ± 1.4%. Also, in the data set with neuro-2A cells [3], the “Protection against Aβ25-35” value is on record as “++”. At Aβ25-35, the “effect on Th-T fluorescence (in words)” value is recorded as “decreased Th-T fluorescence in a dose-dependent manner” and the “Decrease of ThT Fluorescence” value is on record as “++”.
Take `C/C=C(/C)C(=O)O[C@@H]1[C@H](OC(C)=O)c2c(ccc3ccc(=O)oc23)OC1(C)C` [Isopteryxin (4), isopteryxin]: the IC50 in data set [1] worked out at 475.9 ± 1.5 µM. Moreover, the “% Inhibition of deoxyribose degradation, Non Site-Specific” value in data set [2] came to 10 ± 2.1%. Moreover, the “neuroprotection against Aβ25-35 (in words)” value with neuro-2A cells [3] (at the highest concentration (100 µM)) was “significant neuroprotection (p < 0.05)”. Further, the “Protection against Aβ25-35” value with neuro-2A cells [3] was “+”. At Aβ25-35, the “effect on Th-T fluorescence (in words)” value is “weak activity” and the “Decrease of ThT Fluorescence” value is on record as “+”.
For “kaempferol-3-O-rutinoside [Kaempferol-3-O-rutinoside (14)]”, the “neuroprotection against H2O2-induced neurotoxicity (in words)” value in the data set on neuro-2A cells [4] (6.25-100 µM, H2O2 150 µM) is “significant (p < 0.05) increase in cell viability at 100 µM”. Moreover, the “Protection against H2O2” value in the data set with neuro-2A cells [4] (summary Table 4) is given as “+”. Moreover, the “Intracellular ROS Scavenging” value in data set [5] is “+”. The IC50 is 1030 ± 25.7 µM in data set [2] (Fe3+/ascorbate/EDTA/H2O2 system, read-out: IC50 hydroxyl radical scavenging, Non Site-Specific); 1540 ± 20.8 µM in data set [2] (Fe3+/ascorbate/H2O2 system without EDTA, read-out: IC50 hydroxyl radical scavenging, Site-Specific); 1030 ± 25.7 µM in data set [2] (summary Table 4 (values of the non site-specific assay), read-out: Hydroxyl Radical Scavenging/IC50). Moreover, the “Protection against Aβ25-35” value in the data set on neuro-2A cells [3] is listed as “++”. The “decrease of Th-T fluorescence intensity” value was 12% ±3.7% at Aβ25-35 (50 µM) and 33% ± 2.5% at Aβ25-35 (100 µM). Moreover, the “effect on Th-T fluorescence (in words)” value at Aβ25-35 was “decreased Th-T fluorescence in a dose-dependent manner”. In addition, at Aβ25-35, the “Decrease of ThT Fluorescence” value is “++”.
